Laboratory results from US8252793B2, “Bradykinin receptor agonists and uses thereof to treat ocular hypertension and glaucoma” (Alcon Research, Ltd., priority 2010, dated 2012).

Key:
[1] = molecular target: T1, BK receptors in human ciliary muscle cells (h-CM) (Homo sapiens, UniProt P30411); assay: Functional assay measuring [Ca2+]i mobilization (FLIPR) in h-CM cells; format: cell-based; details: class symbols (in μM), read-out: CaM (EC50)
T1 construct: h-CM cells expressing BK receptors were seeded; endogenous in cells; host or cells: human ciliary muscle (h-CM) cells
T1 sequence (P30411 1-391): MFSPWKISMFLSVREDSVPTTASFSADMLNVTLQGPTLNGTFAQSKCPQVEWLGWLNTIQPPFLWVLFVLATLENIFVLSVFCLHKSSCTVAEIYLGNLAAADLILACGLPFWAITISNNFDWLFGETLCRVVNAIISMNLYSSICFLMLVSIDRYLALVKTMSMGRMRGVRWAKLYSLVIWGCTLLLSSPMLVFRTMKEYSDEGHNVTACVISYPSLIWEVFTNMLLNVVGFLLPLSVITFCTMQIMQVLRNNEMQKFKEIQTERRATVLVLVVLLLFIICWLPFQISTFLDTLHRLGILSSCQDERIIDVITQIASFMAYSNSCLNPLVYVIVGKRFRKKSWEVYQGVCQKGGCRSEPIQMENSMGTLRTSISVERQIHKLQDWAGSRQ
Outline: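 Human ciliary muscle cells loaded 1 h at 23 °C with FLIPR calcium dye in HBSS, 20 mM HEPES, 2.5 mM probenecid, pH 7.4. EC50 by 4-parameter fit.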

[2] = molecular target: T2, recombinant human bradykinin B2 receptor (Homo sapiens, UniProt P30411); assay: [3H]-BK competition radioligand binding to human cloned B2 receptor (CHO cell membranes); details: 0.2 nM [3H]-bradykinin, CHO membranes, 60 min 23° C.; mean ± SEM or single value; Ki from IC50 by Cheng-Prusoff; read-out: [3H]-BK Binding to Human Cloned B2 Receptor (Ki)
T2 construct: expressed in transfected cells; host or cells: Chinese hamster ovary (CHO) cells, membrane homogenates
T2 sequence (P30411 1-391): T1 sequence (P30411 1-391)

[3] = tested on: primary human ciliary muscle cells (h-CM); assay: Total prostaglandin (PG) release from primary h-CM cells (EIA); format: cell-based; details: Homo sapiens, 1 h, 1 hour at 37° C., class symbols (in μM)
Outline: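 Confluent primary h-CM cells, serum-starved (0.8% FBS) 24 h, were exposed to a 9-point concentration series (0.1 nM-10 μM) of bradykinin or BK agonist for 1 hour at 37° C. Total PG released was then quantified by EIA.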

| EC50 [1] [µM] | Ki [2] [nM] | EC50 [3] [µM] | Compound |
| --- | --- | --- | --- |
| < 0.1 | 17 | < 0.1 | CNC(=O)c1ccc(CCC(=O)NCC(=O)N(C)c2ccc(Cl)c(COc3cccc4c(OCc5nccn5C)cc(C)nc34)c2Cl)cc1 [Compound 71] |
| < 0.1 | 450 | 0.1 to 1 | CNC(=O)N1CCN(CC(F)(F)C(=O)NCC(=O)N(C)c2ccc(Cl)c(COc3cccc4c3nc(OC)n4Cc3ccccn3)c2Cl)CC1 [Compound 40, 4-(3-((2-((2,4-dichloro-3-(((2-methoxy-1-(pyridin-2-ylmethyl)-1H-benzo[d]imidazol-4-yl)oxy)methyl)phenyl)(methyl)amino)-2-oxoethyl)amino)-2,2-difluoro-3-oxopropyl)-N-methylpiperazine-1-carboxamide] |
| < 0.1 | 237 | > 1 | COc1nc2c(OCc3c(Cl)ccc(N(C)C(=O)CNC(=O)CCC4CN=C(N[N+](=O)[O-])NC4)c3Cl)cccc2n1Cc1ccccn1 (stereo not drawn) [Compound 76] |
| < 0.1 | 667 ± 101 | 0.1 to 1 | CCOC(=O)NC1=NCC(CCC(=O)NCC(=O)N(C)c2ccc(Cl)c(COc3cccc4c3nc(OC)n4Cc3ccccn3)c2Cl)CN1 (stereo not drawn) [Compound 9, Ethyl (5-(3-((2-((2,4-dichloro-3-(((2-methoxy-1-(pyridin-2-ylmethyl)-1H-benzo[d]imidazol-4-yl)oxy)methyl)phenyl)(methyl)amino)-2-oxoethyl)amino)-3-oxopropyl)-1,4,5,6-tetrahydropyrimidin-2-yl)carbamate] |
| < 0.1 | 40 | < 0.1 | CNC(=O)[C@@H]1CN(CC(=O)NCC(=O)N(C)c2ccc(Cl)c(COc3cccc4c3nc(OC)n4Cc3ccccn3)c2Cl)CCO1 [Compound 45, (S)-4-(2-((2-((2,4-dichloro-3-(((2-methoxy-1-(pyridin-2-ylmethyl)-1H-benzo[d]imidazol-4-yl)oxy)methyl)phenyl)(methyl)amino)-2-oxoethyl)amino)-2-oxoethyl)-N-methylmorpholine-2-carboxamide] |
| < 0.1 | 178 | < 0.1 | CNC(=O)c1ccc(C(=O)NCC(=O)N(C)c2ccc(Cl)c(COc3cccc4c3nc(OC)n4Cc3ccccn3)c2Cl)cn1 [Compound 69] |
